In PubChem BioAssay AID2060485 (Molecular Pharmacology Branch, DTP, NCI, 2025):

System: A375 multi-cell spheroids with HUVEC/MSC, viability
Assay: Anticancer human tumor A375 cell line growth inhibition [GQUAD];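 also: spheroids exposed to compounds for seven days before readout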
Conditions: for IC50: curve of first compound; for viability, T/C: stronger effect = lower value; active = viability on the fitted dose curve at most 10% of control; inactive = the rest
Summary of the method: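 Tumor cells were grown as complex spheroids with HUVEC endothelial cells and mesenchymal stem cells as stroma. G-quadruplex stabilizers were combined with targeted agents over half-log dilutions from near the clinical Cmax, or from 10 microM.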

[1] = second compound 0.0316 µM, first compound 0.0316 µM
[2] = second compound 0.0316 µM, first compound 0.1 µM
[3] = second compound 0.0316 µM, first compound 0.316 µM
[4] = second compound 0.0316 µM, first compound 1 µM
[5] = second compound 0.0316 µM, first compound 3.16 µM
[6] = second compound 0.0316 µM, first compound 10 µM
[7] = second compound 0.1 µM, first compound 0.0316 µM
[8] = second compound 0.1 µM, first compound 0.1 µM
[9] = second compound 0.1 µM, first compound 0.316 µM
[10] = second compound 0.1 µM, first compound 1 µM
[11] = second compound 0.1 µM, first compound 3.16 µM
[12] = second compound 0.1 µM, first compound 10 µM
[13] = second compound 0.316 µM, first compound 0.0316 µM
[14] = second compound 0.316 µM, first compound 0.1 µM
[15] = second compound 0.316 µM, first compound 0.316 µM
[16] = second compound 0.316 µM, first compound 1 µM
[17] = second compound 0.316 µM, first compound 3.16 µM
[18] = second compound 0.316 µM, first compound 10 µM
[19] = second compound 1 µM, first compound 0.0316 µM
[20] = second compound 1 µM, first compound 0.1 µM
[21] = second compound 1 µM, first compound 0.316 µM
[22] = second compound 1 µM, first compound 1 µM
[23] = second compound 1 µM, first compound 3.16 µM
[24] = second compound 1 µM, first compound 10 µM
[25] = second compound 3.16 µM, first compound 0.0316 µM
[26] = second compound 3.16 µM, first compound 0.1 µM
[27] = second compound 3.16 µM, first compound 0.316 µM
[28] = second compound 3.16 µM, first compound 1 µM
[29] = second compound 3.16 µM, first compound 3.16 µM
[30] = second compound 3.16 µM, first compound 10 µM
[31] = second compound 10 µM, first compound 0.0316 µM
[32] = second compound 10 µM, first compound 0.1 µM
[33] = second compound 10 µM, first compound 0.316 µM
[34] = second compound 10 µM, first compound 1 µM
[35] = second compound 10 µM, first compound 3.16 µM
[36] = second compound 10 µM, first compound 10 µM

C=CCn1c(=O)c2cnc(Nc3ccc(N4CCN(C)CC4)cc3)nc2n1-c1cccc(C(C)(C)O)n1 + CN(C)c1ccc(Nc2c3ccc(NC(=O)CCN4CCCC4)cc3nc3cc(NC(=O)CCN4CCCC4)ccc23)cc1
active: viability, T/C [6] 7.71% | viability, T/C [18] 6.94% | viability, T/C [24] 6.9% | viability, T/C [30] 8.34%
inactive: viability, T/C [1] 99.7% | viability, T/C [2] 105% | viability, T/C [3] 96.4% | viability, T/C [4] 55.9% | viability, T/C [5] 12.3% | viability, T/C [7] 98.4% | viability, T/C [8] 100% | viability, T/C [9] 104% | viability, T/C [10] 58% | viability, T/C [11] 15.1% | viability, T/C [12] 7.18% | viability, T/C [13] 106% | viability, T/C [14] 98.7% | viability, T/C [15] 99.9% | viability, T/C [16] 60.7% | viability, T/C [17] 14.2% | viability, T/C [19] 102% | viability, T/C [20] 102% | viability, T/C [21] 107% | viability, T/C [22] 63.8% | viability, T/C [23] 15.3% | viability, T/C [25] 108% | viability, T/C [26] 96.1% | viability, T/C [27] 106% | viability, T/C [28] 66% | viability, T/C [29] 15.6% | viability, T/C [31] 103% | viability, T/C [32] 93.3% | viability, T/C [33] 105% | viability, T/C [34] 63.5% | viability, T/C [35] 17.4% | viability, T/C [36] 8.32%
1.23 µM: IC50 (second compound 0.1 µM)
1.4 µM: IC50 (second compound 10 µM)
1.44 µM: IC50 (second compound 3.16 µM)
1.31 µM: IC50 (second compound 0.316 µM)
1.16 µM: IC50 (second compound 0.0316 µM)
1.38 µM: IC50 (second compound 1 µM)

CC(C)(O)C1CCC(Nc2ccc3ncc(-c4cccc(C(F)(F)F)c4)n3n2)CC1 (stereo unspecified) + CN(C)c1ccc(Nc2c3ccc(NC(=O)CCN4CCCC4)cc3nc3cc(NC(=O)CCN4CCCC4)ccc23)cc1
2.18 µM: IC50 (second compound 10 µM)
inactive: viability, T/C [1] 95.9% | viability, T/C [2] 93% | viability, T/C [3] 95.7% | viability, T/C [4] 104% | viability, T/C [5] 84% | viability, T/C [6] 92.9% | viability, T/C [7] 93.1% | viability, T/C [8] 92.6% | viability, T/C [9] 96.6% | viability, T/C [10] 90.6% | viability, T/C [11] 79.2% | viability, T/C [12] 88.5% | viability, T/C [13] 99% | viability, T/C [14] 91.2% | viability, T/C [15] 88.9% | viability, T/C [16] 104% | viability, T/C [17] 80.6% | viability, T/C [18] 92.8% | viability, T/C [19] 96.7% | viability, T/C [20] 92.4% | viability, T/C [21] 97.7% | viability, T/C [22] 95.1% | viability, T/C [23] 75.9% | viability, T/C [24] 85% | viability, T/C [25] 93.7% | viability, T/C [26] 99.2% | viability, T/C [27] 97.7% | viability, T/C [28] 98.1% | viability, T/C [29] 49.6% | viability, T/C [30] 68.7% | viability, T/C [31] 94.6% | viability, T/C [32] 91.2% | viability, T/C [33] 96.7% | viability, T/C [34] 84.9% | viability, T/C [35] 25.9% | viability, T/C [36] 40.9%
> 10 µM: IC50 (second compound 0.0316 µM) | IC50 (second compound 0.1 µM) | IC50 (second compound 0.316 µM) | IC50 (second compound 1 µM)
10 µM: IC50 (second compound 3.16 µM)

COc1ncnc(C2CC2)c1-c1ncc2cnn(Cc3ccc(-c4nc(C(F)(F)F)cn4C(C)C)cc3)c2n1 + CN(C)c1ccc(Nc2c3ccc(NC(=O)CCN4CCCC4)cc3nc3cc(NC(=O)CCN4CCCC4)ccc23)cc1
> 10 µM: IC50 (second compound 0.0316 µM) | IC50 (second compound 0.1 µM) | IC50 (second compound 0.316 µM) | IC50 (second compound 1 µM) | IC50 (second compound 3.16 µM) | IC50 (second compound 10 µM)
inactive: viability, T/C [1] 108% | viability, T/C [2] 100% | viability, T/C [3] 115% | viability, T/C [4] 104% | viability, T/C [5] 108% | viability, T/C [6] 104% | viability, T/C [7] 105% | viability, T/C [8] 105% | viability, T/C [9] 102% | viability, T/C [10] 103% | viability, T/C [11] 105% | viability, T/C [12] 114% | viability, T/C [13] 103% | viability, T/C [14] 110% | viability, T/C [15] 110% | viability, T/C [16] 101% | viability, T/C [17] 107% | viability, T/C [18] 105% | viability, T/C [19] 109% | viability, T/C [20] 91% | viability, T/C [21] 101% | viability, T/C [22] 112% | viability, T/C [23] 104% | viability, T/C [24] 102% | viability, T/C [25] 109% | viability, T/C [26] 102% | viability, T/C [27] 109% | viability, T/C [28] 104% | viability, T/C [29] 106% | viability, T/C [30] 104% | viability, T/C [31] 93% | viability, T/C [32] 101% | viability, T/C [33] 94% | viability, T/C [34] 98.9% | viability, T/C [35] 96.1% | viability, T/C [36] 92.8%
